Results as given in patent US20190225650A1, “PEPTIDOMIMETIC MACROCYCLES AND USE THEREOF IN REGULATING HIF1ALPHA” (AILERON THERAPEUTICS, INC., priority 2013, published 2019).
Bridge positions count the residues as written; N and C are the ends. Square brackets hold non-standard residues; d marks the D form. Peptide text beside a SMILES is read from it. R8 = C=CCCCCCC[C@@](C)(N)C(=O)O; S5 = C=CCCC[C@](C)(N)C(=O)O; Nle = CCCC[C@H](N)C(=O)O

What was measured:
[1] = test system: HRE-bla ME-180 cells; experiment: Cell proliferation assay (viability, MTT, 1% FBS); assay type: cell-based, human
Method: The human cervical cell line HRE-Bla ME-180 was obtained from Invitrogen. 2×10^4 ME-180 cells were plated in 96-well plates (costar) in Opti-MEM plus 1% FBS (Invitrogen). After 4 hr, cells were pretreated with chetomin, peptide or 0.5% DMSO (final concentration in media) vehicle control for 16 hr under normoxia (21% O2); then incubation continued under normoxia or hypoxia (1% O2) using a hypoxia incubator (Thermo Forma model). Viable cell numbers were quantified using CellTiter 96 Non-Radioactive Cell Proliferation kit (Promega, G4100). The results are presented in the column “Viability 1% FBS AVG (MTT V3-24 hr Normoxia) (μM)” of Table 6.

[2] = test system: HRE-bla ME-180 cells; experiment: Reporter gene assay (HRE-bla ME-180 HIF reporter, GeneBLAzer); assay type: cell-based, human; settings: for EC50: 24 hour normoxia
Procedure, shortened: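 A FRET β-lactamase readout of HIF transcription was used. After compound treatment in 0.3% DMSO/media under normoxic conditions, 20 μl of 6× LiveBLAzer-FRET B/G (CCF4-AM) substrate was added. Plates sat 3 hr at room temperature in the dark and were read at 409 Ex/460Em and 409Ex/530Em on a Synergy 2. Inhibition was compared against DMSO vehicle controls, with chetomin as positive control.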

[3] = molecular target: T1, flag-tagged HIF1α (AA 786-826) / His6-tagged p300 (AA 323-423) complex (Homo sapiens, UniProt Q09472); experiment: HIF1α p300 displacement assay (TR FRET, +CHAPS); assay type: binding; settings: read-out: IC50 (nM) (HIF1α_p300 Displacement + CHAPS)
T1 construct: His6-tagged p300 (AA 323-423); made in house; host or cells: E. coli (pETDuet vector)
T1 sequence (Q09472 323-423, one chain of several): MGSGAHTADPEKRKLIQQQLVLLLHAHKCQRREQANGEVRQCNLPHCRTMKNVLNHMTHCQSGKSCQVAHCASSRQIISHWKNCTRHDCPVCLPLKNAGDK
Procedure, shortened: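 The co-expressed flag-HIF1α (786-826)/His6-p300 (323-423) complex, purified from E. coli with 0.1 mM ZnSO4, was used at 300 nM final with competitor peptides for 1 h at room temperature. Buffer was 150 mM NaCl, 20 mM HEPES pH 7.4, 7.5 mM CHAPS and 1 mM DTT. Anti-Flag-K (0.5 μM) and anti-His-D2 (4 nM) were then added for 2 h, and IC50s were fitted from the TR-FRET ratio.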

CCCC[C@H](NC(=O)[C@]1(C)CCCC=CCCC[C@](C)(NC(=O)[C@H](CCCC)NC(=O)[C@H](CC(C)C)NC(=O)[C@@H](NC(=O)[C@H](CCC(=O)O)NC(=O)[C@H](CCC(=O)O)NC(=O)[C@H](CC(=O)O)NC(=O)[C@@H](NC(=O)[C@H](CC(N)=O)NC(=O)[C@@H](NC(=O)[C@]2(C)CCCC=CCCCCCC[C@@](C)(NC(=O)[C@H](CCC(=O)O)NC(=O)[C@H](C)NC(=O)[C@H](CCC(N)=O)NC(=O)[C@H](CC(C)C)NC(=O)[C@H](CC(C)C)NC(C)=O)C(=O)N[C@@H](CC(C)C)C(=O)N[C@@H](CC(C)C)C(=O)N[C@@H](CCCNC(=N)N)C(=O)N[C@@H](C)C(=O)N[C@@H](CC(C)C)C(=O)N[C@@H](CC(=O)O)C(=O)N2)C(C)C)[C@@H](C)CC)C(C)C)C(=O)N[C@@H](CC(C)C)C(=O)N[C@@H](C(C)C)C(=O)N[C@@H]([C@@H](C)CC)C(=O)N1)C(N)=O [SP-350] (Ac-LLQAE[R8]LLRALD[S5]VNIDEEVL[Nle][S5]LVI[S5][Nle]-NH2; staple 6-13, 23-27)
Viability 1% FBS AVG (MTT V3-24 hr Normoxia) (μM) [1]: ++++ (≥30: ++++) | 18 h Avg % max inhibition at top conc (HIF Rptr-24 hrs normoxia) (μM) [2]: +++ (≤25 but <50: +++) | EC50 [2]: 5 to 15 µM

CCCC[C@H](NC(=O)[C@H](Cc1ccccc1)NC(=O)[C@@H](NC(=O)[C@H](C)NC(=O)[C@H](CCC(N)=O)NC(=O)[C@H](CC(=O)O)NC(=O)[C@@H](NC(=O)[C@H](Cc1ccccc1)NC(C)=O)[C@@H](C)CC)C(C)C)C(=O)N[C@@]1(C)CCCC=CCCC[C@@](C)(C(=O)N[C@@H](CCC(N)=O)C(=O)N[C@@H](C)C(=O)N[C@@H](CC(C)C)C(=O)N[C@@H](CC(C)C)C(N)=O)NC(=O)[C@H]([C@@H](C)CC)NC(=O)[C@H](C(C)C)NC(=O)[C@H](CC(C)C)NC1=O [SP-255] (Ac-FIDQAVF[Nle][S5]LVI[S5]QALL-NH2; staple 9-13)
Viability 1% FBS AVG (MTT V3-24 hr Normoxia) (μM) [1]: + (<5: +) | 18 h Avg % max inhibition at top conc (HIF Rptr-24 hrs normoxia) (μM) [2]: ++++ (≥50: ++++) | EC50 [2]: ≤ 5 µM

CC[C@H](C)[C@H](NC(=O)[C@H](Cc1ccccc1)NC(C)=O)C(=O)N[C@@H](CC(=O)O)C(=O)N[C@@H](CCC(=O)O)C(=O)N[C@H](C(=O)N[C@H](C(=O)N[C@@H](CC(C)C)C(=O)N[C@@H](CCSC)C(=O)N[C@@]1(C)CCCC=CCCC[C@@](C)(C(=O)N[C@@H](CCSC)C(=O)N[C@@H](C)C(=O)N[C@@H](CC(C)C)C(N)=O)NC(=O)[C@H]([C@@H](C)CC)NC(=O)[C@H](C(C)C)NC(=O)[C@H](CC(C)C)NC1=O)C(C)C)[C@@H](C)O [SP-239] (Ac-FIDETVLM[S5]LVI[S5]MAL-NH2; staple 9-13)
Viability 1% FBS AVG (MTT V3-24 hr Normoxia) (μM) [1]: ++++ (≥30: ++++) | 18 h Avg % max inhibition at top conc (HIF Rptr-24 hrs normoxia) (μM) [2]: ++ (≤10 but <25: ++) | EC50 [2]: > 30 µM

CC[C@H](C)[C@H](NC(=O)[C@H](CCCNC(=N)N)NC(=O)[C@H](CC(=O)O)NC(=O)[C@H](CC(C)C)NC(=O)[C@H](C)NC(=O)[C@H](CCSC)NC(=O)[C@]1(C)CCCC=CCCC[C@](C)(NC(=O)[C@H](CCSC)NC(=O)[C@H](Cc2ccccc2)NC(=O)[C@@H](NC(=O)[C@H](CCC(=O)O)NC(=O)[C@H](CCC(N)=O)NC(=O)[C@H](CC(=O)O)NC(=O)[C@@H](NC(=O)[C@H](Cc2ccccc2)NC(C)=O)[C@@H](C)CC)C(C)C)C(=O)N[C@@H](CC(C)C)C(=O)N[C@@H](C(C)C)C(=O)N[C@@H]([C@@H](C)CC)C(=O)N1)C(N)=O [SP-267] (Ac-FIDQEVFM[S5]LVI[S5]MALDRI-NH2; staple 9-13)
Viability 1% FBS AVG (MTT V3-24 hr Normoxia) (μM) [1]: ++++ (≥30: ++++) | 18 h Avg % max inhibition at top conc (HIF Rptr-24 hrs normoxia) (μM) [2]: +++ (≤25 but <50: +++) | EC50 [2]: > 30 µM

CCCC[C@H](NC(=O)[C@H](CC(C)C)NC(=O)[C@@H](NC(=O)[C@H](CCC(=O)O)NC(=O)[C@H](CCC(=O)O)NC(=O)[C@H](CC(=O)O)NC(=O)[C@@H](NC(=O)[C@H](Cc1ccccc1)NC(C)=O)[C@@H](C)CC)C(C)C)C(=O)N[C@@]1(C)CCCC=CCCC[C@@](C)(C(=O)N[C@@H](CCCC)C(=O)N[C@@H](C)C(=O)N[C@@H](CC(C)C)C(N)=O)NC(=O)[C@H]([C@@H](C)CC)NC(=O)[C@H](C(C)C)NC(=O)[C@H](CC(C)C)NC1=O [SP-8] (Ac-FIDEEVL[Nle][S5]LVI[S5][Nle]AL-NH2; staple 9-13)
Viability 1% FBS AVG (MTT V3-24 hr Normoxia) (μM) [1]: ++++ (≥30: ++++)

CC[C@H](C)[C@H](NC(=O)[C@H](CCCNC(=N)N)NC(=O)[C@H](CC(=O)O)NC(=O)[C@H](CC(C)C)NC(=O)[C@H](C)NC(=O)[C@H](CCSC)NC(=O)[C@]1(C)CCCC=CCCC[C@](C)(NC(=O)[C@H](CCSC)NC(=O)[C@H](CC(C)C)NC(=O)[C@@H](NC(=O)[C@H](CCC(N)=O)NC(=O)[C@H](CCC(=O)O)NC(=O)[C@H](CC(=O)O)NC(=O)[C@@H](NC(=O)[C@H](Cc2ccccc2)NC(C)=O)[C@@H](C)CC)C(C)C)C(=O)N[C@@H](CC(C)C)C(=O)N[C@@H](C(C)C)C(=O)N[C@@H]([C@@H](C)CC)C(=O)N1)C(N)=O [SP-282] (Ac-FIDEQVLM[S5]LVI[S5]MALDRI-NH2; staple 9-13)
Viability 1% FBS AVG (MTT V3-24 hr Normoxia) (μM) [1]: ++++ (≥30: ++++) | 18 h Avg % max inhibition at top conc (HIF Rptr-24 hrs normoxia) (μM) [2]: ++++ (≥50: ++++) | EC50 [2]: ≤ 5 µM

CCCC[C@H](NC(=O)[C@H](C)NC(=O)[C@]1(C)CCCC=CCCCCCC[C@@](C)(NC(=O)[C@H](C)NC(=O)[C@H](C)NC(=O)[C@@H](NC(=O)[C@H](CC(N)=O)NC(=O)[C@@H](NC(=O)[C@H](CCC(N)=O)NC(=O)[C@]2(C)CCCC=CCCC[C@](C)(NC(=O)[C@H](CC(C)C)NC(=O)[C@H](C)NC(=O)[C@H](C)NC(=O)CNC(=O)[C@H](CCC(N)=O)NC(=O)[C@H](CC(C)C)NC(=O)[C@H](CC(C)C)NC(C)=O)C(=O)N[C@@H](CCCNC(=N)N)C(=O)N[C@@H](C)C(=O)N[C@@H](CC(C)C)C(=O)N2)C(C)C)[C@@H](C)CC)C(=O)N[C@@H](C(C)C)C(=O)N[C@@H](CC(C)C)C(=O)N[C@@H](CCCC)C(=O)N[C@@H](CO)C(=O)N[C@@H](CC(C)C)C(=O)N[C@@H](C(C)C)C(=O)N1)C(N)=O [SP-364] (Ac-LLQGAAL[S5]RAL[S5]QVNIAA[R8]VL[Nle]SLV[S5]A[Nle]-NH2; staple 8-12, 19-26)
Viability 1% FBS AVG (MTT V3-24 hr Normoxia) (μM) [1]: ++++ (≥30: ++++) | 18 h Avg % max inhibition at top conc (HIF Rptr-24 hrs normoxia) (μM) [2]: ++ (≤10 but <25: ++) | EC50 [2]: > 30 µM

CCCC[C@H](NC(=O)[C@H](CC(C)C)NC(=O)[C@@H](NC(=O)[C@H](C)NC(=O)[C@H](CCC(N)=O)NC(=O)[C@H](CC(=O)O)NC(=O)[C@@H](NC(=O)[C@H](Cc1ccccc1)NC(C)=O)[C@@H](C)CC)C(C)C)C(=O)N[C@@]1(C)CCCC=CCCC[C@@](C)(C(=O)N[C@@H](CCCC)C(=O)N[C@@H](C)C(=O)N[C@@H](CC(C)C)C(=O)N[C@@H](CC(N)=O)C(=O)N[C@@H](CCCNC(=N)N)C(=O)N[C@H](C(N)=O)[C@@H](C)CC)NC(=O)[C@H]([C@@H](C)CC)NC(=O)[C@H](C(C)C)NC(=O)[C@H](CC(C)C)NC1=O [SP-273] (Ac-FIDQAVL[Nle][S5]LVI[S5][Nle]ALNRI-NH2; staple 9-13)
Viability 1% FBS AVG (MTT V3-24 hr Normoxia) (μM) [1]: ++++ (≥30: ++++) | 18 h Avg % max inhibition at top conc (HIF Rptr-24 hrs normoxia) (μM) [2]: +++ (≤25 but <50: +++) | EC50 [2]: > 30 µM

CCCC[C@H](NC(=O)[C@H](CCC(=O)O)NC(=O)[C@@H](NC(=O)[C@@H](NC(=O)[C@H](CC(C)C)NC(=O)[C@]1(C)CCCC=CCCC[C@](C)(NC(=O)[C@H](CCC(=O)O)NC(=O)[C@H](CC(=O)O)NC(=O)[C@@H](NC(=O)[C@H](Cc2ccccc2)NC(C)=O)[C@@H](C)CC)C(=O)N[C@@H](CO)C(=O)N[C@@H](CC(C)C)C(=O)N[C@@H](CCCC)C(=O)N1)C(C)C)[C@@H](C)CC)C(=O)N[C@@H](C)C(=O)N[C@@H](CC(C)C)C(N)=O [SP-140] (Ac-FIDE[S5]SL[Nle][S5]LVIE[Nle]AL-NH2; staple 5-9)
Viability 1% FBS AVG (MTT V3-24 hr Normoxia) (μM) [1]: +++ (≤15 but <30: +++) | 18 h Avg % max inhibition at top conc (HIF Rptr-24 hrs normoxia) (μM) [2]: +++ (≤25 but <50: +++) | EC50 [2]: > 30 µM

CCCC[C@H](NC(=O)[C@H](C)NC(=O)[C@@H](NC(=O)[C@@H](NC(=O)[C@H](CC(C)C)NC(=O)[C@]1(C)CCCC=CCCC[C@](C)(NC(=O)[C@H](CCC(=O)O)NC(=O)[C@H](CC(=O)O)NC(=O)[C@@H](NC(=O)[C@H](Cc2ccccc2)NC(C)=O)[C@@H](C)CC)C(=O)N[C@@H](C(C)C)C(=O)N[C@@H](CC(C)C)C(=O)N[C@@H](CCCC)C(=O)N1)C(C)C)[C@@H](C)CC)C(=O)N[C@@H](C)C(=O)N[C@@H](CC(C)C)C(N)=O [SP-122] (Ac-FIDE[S5]VL[Nle][S5]LVIA[Nle]AL-NH2; staple 5-9)
18 h Avg % max inhibition at top conc (HIF Rptr-24 hrs normoxia) (μM) [2]: ++ (≤10 but <25: ++) | EC50 [2]: > 30 µM | IC50 [3]: 200 to 400 nM
